According to patent US20070155755A1, “N-arylshydroxyalkylidene-carboxamide compositions and methods” (priority 2004, published 2007):

Experiments:
[1] = system: skin of the upper lip; experiment: Cooling sensation bioassay, ointment applied to skin above the upper lip (philtrum); type: in vivo, human; settings: for duration of action (in words): application to the skin of test subjects; for duration of action, cooling on the skin of the upper lip (FIG. 1 legend): in Aquaphor ointment, concentration not given; for quality of sensation and duration (coolness not cold, duration at least three hours): philtrum method of testing; for duration of action, cooling on the skin of the upper lip: 0.5% wt/vol in Aquaphor ointment
Source text: A reliable place for topical application is on the upper lip, above the vermillion border of the lips, on the philtrum, lateral to the philtrum until the nasolabial folds, and on the lower nostrils. This part of the face is known to be densely innervated with cold receptors, second only to the surface of eyeball. Tingling, cool and cold sensations may be experienced and rated for intensity. This test is quite accurate for predicting the cooling activity of candidate N-arylshydroxyalkylidene-cCarboxamide drugs, but most importantly, it also measures the duration of drug action on the sensory receptors. The duration of action is not measured in a receptor assay and is difficult to quantify on the tongue because of the dynamic fluid conditions in the oral cavity and the presence of taste factors that affect thermosensation.
Bioassay Procedures For bioassay of CPS-195 on the skin, CPS-195 was stirred and dissolved in warm liquid Aquaphor® ointment to yield ointment concentrations of 0.25, 0.5, 1 and 2% wt/vol. After cooling, 50 to 80 mg of the solid ointment was placed on the tip of a plastic stick and applied to the skin above the upper lip, on the philtrum, and lateral to the philtrum up to the nasolabial folds, of test subjects and the onset and duration of cooling sensations recorded.
The intensity of the subjective skin sensation is rated as 0, 1, 2 or 3 with: 0 as no change, 1 as slight coolness, cold, or tingling, 2 as clear cut signal of coolness, cold, or tingling, and 3 as robust cooling or cold. The interval for recording sensations is at 5 min intervals, until two successive zeroes are obtained. The results are averaged values of 4 to 6 separate trials in the same individual. The data are plotted using SigmaPlot (Systat Software, Point Richmond Calif.) and a smoothing function with a negative exponential was used for analysis and statistical fit of the results.
The onset of drug action is taken as the time to reach 2 units of coolness intensity, and offset of drug action is the time when coolness intensity drops below 1.5, after previously surpassing 2 units. The duration of cooling action is defined as the offset time minus the onset time, which in this case averaged […]. The quality of the sensation is also noted, such as refreshing coolness, cold, or if the sensation is accompanied by irritation (stinging or burning). The quality of the sensation is not rated for intensity.

[2] = system: throat irritation and cough; experiment: Ludipress tablet on the tongue in an individual with throat irritation and cough; type: in vivo, human; settings: 3% wt/wt tablet in Ludipress, 60 mg (1.8 mg CPS-195)
Procedure: CPS-195 was formulated as a 3% wt/wt tablet in Ludipress®, a rapidly disintegrating direct compression excipient made by BASF Corp. The tablet size was 60 mg so each unit contained 1.8 mg of CPS-195. […] For example, applied onto the mucous membranes of the oral cavity it can soothe the discomforts of pharyngitis/laryngitis, oral mucositis, oral ulcers, and idiopathic facial pain. In the pharynx and upper airways, CPS-195 may be used to reduce or to treat cough, asthma, and chronic obstructive pulmonary disease. On the skin, CPS-195 can be used to treat the discomfort of severe acne, eczema, diabetic ulcers, and the like.

[3] = system: dorsal surface of the tongue; experiment: Cooling sensation after placement on the dorsal surface of the tongue; type: in vivo, human; settings: 2 mg on dorsal surface of the tongue
Procedure: The onset of cooling was 3 to 5 min, but once the effect was established, the entire oral cavity and pharyngeal surfaces (oro-, laryngo- and naso-pharynx) felt cool.

[4] = biological target: T1, TRP-M8 receptor (Homo sapiens, UniProt Q7Z2W7); experiment: TRP-M8 receptor assay; type: cell-based
T1 construct: expressed in transfected cells
T1 sequence (Q7Z2W7 whole entry): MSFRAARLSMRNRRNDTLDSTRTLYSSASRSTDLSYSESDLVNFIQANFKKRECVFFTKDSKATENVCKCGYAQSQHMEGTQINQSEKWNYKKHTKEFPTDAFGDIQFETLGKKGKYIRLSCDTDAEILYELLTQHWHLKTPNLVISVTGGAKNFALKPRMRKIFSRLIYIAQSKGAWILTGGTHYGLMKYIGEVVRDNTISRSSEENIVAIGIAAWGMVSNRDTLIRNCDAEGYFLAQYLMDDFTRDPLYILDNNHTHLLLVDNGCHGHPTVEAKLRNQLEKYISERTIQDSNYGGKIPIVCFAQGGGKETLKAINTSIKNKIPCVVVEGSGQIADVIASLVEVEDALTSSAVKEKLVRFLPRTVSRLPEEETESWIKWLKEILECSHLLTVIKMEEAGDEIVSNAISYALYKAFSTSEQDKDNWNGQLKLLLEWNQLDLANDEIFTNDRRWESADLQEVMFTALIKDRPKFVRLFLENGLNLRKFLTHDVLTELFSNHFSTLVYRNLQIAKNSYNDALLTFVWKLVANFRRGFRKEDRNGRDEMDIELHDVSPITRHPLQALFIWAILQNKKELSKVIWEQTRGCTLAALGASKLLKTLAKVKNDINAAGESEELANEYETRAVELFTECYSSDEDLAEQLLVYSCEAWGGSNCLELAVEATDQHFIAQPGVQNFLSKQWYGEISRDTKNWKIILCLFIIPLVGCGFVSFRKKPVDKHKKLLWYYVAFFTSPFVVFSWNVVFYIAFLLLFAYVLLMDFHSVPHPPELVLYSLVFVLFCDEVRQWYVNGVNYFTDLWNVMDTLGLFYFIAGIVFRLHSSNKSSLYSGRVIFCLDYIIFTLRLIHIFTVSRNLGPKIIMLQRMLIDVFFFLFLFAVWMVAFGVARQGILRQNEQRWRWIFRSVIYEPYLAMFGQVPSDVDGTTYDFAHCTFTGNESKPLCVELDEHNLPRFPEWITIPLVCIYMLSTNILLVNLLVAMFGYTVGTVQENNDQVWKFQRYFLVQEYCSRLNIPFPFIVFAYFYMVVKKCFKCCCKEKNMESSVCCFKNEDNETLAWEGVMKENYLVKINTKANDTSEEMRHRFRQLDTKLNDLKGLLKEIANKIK
Source text: Tests for Activities of New Compounds. Pain was defined by Sir Charles Sherrington as “the psychic adjunct of an imperative protective reflex”. Psychic events such as cooling, irritation, itch, and pain cannot be expressed by animals (animals cannot say “ouch” or that “it itches”) so the sensory effects of chemicals must be indirectly inferred. Receptor assays, based on cells transfected with the gene for TRP-M8 or TRP-A1, may be used as a model of sensory processes. […] The best information on the pharmacological properties of these chemicals must therefore be derived from human experiment.

How did the “duration of action (in words)” value [1] turn out when `CC1CCC(C(C)C)C(O)C1` (single isomer, unassigned; (-)) [(−)-menthol, reference compound] was run?
The value was “active for less than one hour”.

What does the source list for `CC(C)[C@@H]1CC[C@@H](C)C[C@H]1C(=O)N(C)CC(O)c1cccc(O)c1` (stereo in doubt) [CPS-195, 2-Isopropyl-5-methyl-cyclohexanecarboxylic acid [2′-hydroxy-2′-(3″-hydroxy-phenyl)-ethyl]-N-methyl-amide]?
duration of antitussive effect [2]: 24 h; effect on throat irritation [2]: reduced throat irritation; duration of action, coolness and cold on the skin of the upper lip ([1]; 0.25% wt/vol in Aquaphor ointment): 1.2 h; duration of action, coolness and cold on the skin of the upper lip ([1]; 1% wt/vol in Aquaphor ointment): 2.4 h; duration of action, coolness and cold on the skin of the upper lip ([1]; 2% wt/vol in Aquaphor ointment): 5.2 h; duration of action, cooling on the skin of the upper lip (FIG. 1 legend) [1]: more than 1 hr; potency compared to CPS-179, CPS-190 and CPS-192 ([1]; upper lip ointment test): most potent; onset of cooling [3]: 3 to 5 min

With `CC(C)[C@@H]1CC[C@@H](C)C[C@H]1C(=O)Nc1ccc(S(=O)(=O)Nc2ncccn2)cc1` [CPS-125] as the compound, how does the “quality of sensation and duration (coolness not cold, duration at least three hours)” value [1] read?
The value was “qualitative aspects of sensation are met”.

Which results are given for `CC(=O)c1ccc(C(CO)CNC(=O)[C@@H]2C[C@H](C)CC[C@H]2C(C)C)cc1` (stereo partly shown) [CPS-179, 2-Isopropyl-5-methyl-cyclohexanecarboxylic acid [2′-(4″-acetyl-phenyl)-3′-hydroxy-propyl]-amide]?
duration of action, cooling on the skin of the upper lip [1]: more than 1 hr; duration of action, cooling on the skin of the upper lip (FIG. 1 legend) [1]: more than 1 hr

Which results are given for `CC1CCC(C(C)C)C(C(=O)N(C)CC(O)c2ccc(O)c(O)c2)C1` (stereo not shown) [CPS-190]?
duration of action, cooling on the skin of the upper lip [1]: more than 1 hr; duration of action, cooling on the skin of the upper lip (FIG. 1 legend) [1]: more than 1 hr

With `CC1CCC(C(C)C)C(C(=O)NCC(O)c2cccc(O)c2)C1` (stereo not shown) [CPS-192] as the compound, how does the “duration of action, cooling on the skin of the upper lip” value [1] read?
The value was “more than 1 hr”.

What about the “duration of action, cooling on the skin of the upper lip (FIG. 1 legend)” value [1] of the same compound?
The value was “more than 1 hr”.

`CCOC(=O)CNC(=O)[C@@H]1C[C@H](C)CC[C@H]1C(C)C` [WS-5, reference compound] was tested. Which “duration of action (in words)” value [1] did it give?
Its value is “active for less than one hour”.

With `COc1ccc(NC(=O)[C@@H]2C[C@H](C)CC[C@H]2C(C)C)cc1` [WS-12, reference compound] as the compound, how does the “activity on the TRP-M8 receptor assay” value [4] read?
The value was “active at sub-micromolar concentrations”.

What about the end of action ([1]; 2% preparation) of the same compound?
Its end of action is “dissipated at the end of one hour”.

What about the “time at which duration of action peaks” value ([1]; 2% preparation) of the same compound?
The value was 30 min.

What about the sensation elicited ([1]; applied at 1 to 2% to the philtrum and its environs) of the same compound?
Its sensation elicited is “strong cold sensations”.

And the “quality of sensation and duration (coolness not cold, duration at least three hours)” value [1]?
The value was “sensations of cold, but of brief duration”.
